Experimental data reported in ChEMBL document CHEMBL3612044, “Phosphate Chemical Probes Designed for Location Specific Inhibition of Intracellular Carbonic Anhydrases” (J Med Chem, 2015).

Biological target: Carbonic anhydrase 9 (Homo sapiens, UniProt Q16790)
Assay: Inhibition of human carbonic anhydrase-9 by stopped-flow CO2 hydration assay

Ki	Structure (SMILES)
154 nM	CC(=O)O[C@@H]1[C@@H](OC(C)=O)[C@H](S(N)(=O)=O)O[C@H](COP(=O)(OCCSC(=O)C(C)(C)C)OCCSC(=O)C(C)(C)C)[C@H]1OC(C)=O
135 nM	CC(=O)O[C@@H]1[C@@H](OC(C)=O)[C@H](n2cc(-c3ccc(S(N)(=O)=O)cc3)nn2)O[C@H](COP(=O)(OCCSC(=O)C(C)(C)C)OCCSC(=O)C(C)(C)C)[C@H]1OC(C)=O
213 nM	NS(=O)(=O)[C@@H]1O[C@H](COP(=O)(O)O)[C@@H](O)[C@H](O)[C@H]1O
248 nM	NS(=O)(=O)c1ccc(-c2cn([C@@H]3O[C@H](COP(=O)(O)O)[C@@H](O)[C@H](O)[C@H]3O)nn2)cc1

Structure (SMILES)	Ki
CC(=O)O[C@@H]1[C@@H](OC(C)=O)[C@H](n2cc(-c3ccc(S(N)(=O)=O)cc3)nn2)O[C@H](COP2(=O)OCc3ccccc3O2)[C@H]1OC(C)=O (stereo not given in full)	84.3 nM
